Assay results reported in PubChem BioAssay AID192 (DTP/NCI, 2004).
Where “and” joins values, the source holds several entries; their conditions need not be identical. Equal entries are not always repeated. Toxic doses and inconclusive results are not listed. How the source made its calls: active means survival T/C of 150% or more; inactive means T/C below 125% in these data. Square brackets hold non-standard residues; d marks the D form. Peptide text beside a SMILES is read from it. ξ: configuration not given here. ξLac(3-iPr) = CC(C)CC(O)C(=O)O; NMeV = CN[CH](C(=O)O)C(C)C; NMeA = CN[CH](C)C(=O)O; βAla = NCCC(=O)O

Tested on: BDF1 mice, B16 melanoma ip, median survival T/C
Experiment: NCI In Vivo Anticancer Drug Screen. Data for tumor model B16 Melanoma (intraperitoneal) in B6D2F1 (BDF1) mice
Conditions: endpoint: median survival time, higher = longer survival
Outline: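 Mice with transplantable tumors; drug vs vehicle groups; endpoint survival or tumor size; value = T/C.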

[1] = dose: 100.0 mg/kg/injection, schedule: Q01DX009 (ip), vehicle: Klucel (hydroxypropylcellulose) (HPC)
[2] = dose: 200.0 mg/kg/injection, schedule: Q01DX009 (ip), vehicle: Klucel (hydroxypropylcellulose) (HPC)
[3] = dose: 25.0 mg/kg/injection, schedule: Q01DX009 (ip), vehicle: saline with Tween-80
[4] = dose: 6.25 mg/kg/injection, schedule: Q01DX009 (ip), vehicle: saline
[5] = dose: 25.0 mg/kg/injection, schedule: Q01DX009 (ip), vehicle: saline
[6] = dose: 100.0 mg/kg/injection, schedule: Q01DX009 (ip), vehicle: saline with Tween-80
[7] = dose: 50.0 mg/kg/injection, schedule: Q01DX009 (ip), vehicle: saline with Tween-80
[8] = dose: 50.0 mg/kg/injection, schedule: Q01DX009 (ip), vehicle: saline
[9] = dose: 50.0 mg/kg/injection, schedule: Q04DX003 (ip), vehicle: Klucel (hydroxypropylcellulose) (HPC)
[10] = dose: 100.0 mg/kg/injection, schedule: Q04DX003 (ip), vehicle: Klucel (hydroxypropylcellulose) (HPC)
[11] = dose: 200.0 mg/kg/injection, schedule: Q04DX003 (ip), vehicle: Klucel (hydroxypropylcellulose) (HPC)

Measured: T/C

N=C(N)NC(=N)Nc1ccc(NC(=O)Nc2ccc(Nc3c4ccccc4nc4cc([N+](=O)[O-])ccc34)cc2)cc1
inactive: dose: 0.8 mg/kg/injection, schedule: Q01DX009 (ip), vehicle: water 98 % of control | dose: 1.6 mg/kg/injection, schedule: Q01DX009 (ip), vehicle: water 100 % of control | dose: 3.13 mg/kg/injection, schedule: Q01DX009 (ip), vehicle: water 102 % of control | dose: 6.25 mg/kg/injection, schedule: Q01DX009 (ip), vehicle: water 104 % of control | dose: 12.5 mg/kg/injection, schedule: Q01DX009 (ip), vehicle: water 94 % of control

N#Cc1ccc(/C=C/C(=O)c2ccccc2)cc1
inactive: [1] 101 % of control | [2] 101 % of control

CCc1ccc(NC(=O)C(c2ccccc2)c2ccccc2)cc1
inactive: dose: 12.5 mg/kg/injection, schedule: Q01DX009 (ip), vehicle: saline with Tween-80 89 % of control | [3] 86 % of control

CC1CC(NC(=S)S)CC(C)(C)C1 (stereo unspecified)
inactive: dose: 0.25 mg/kg/injection, schedule: Q01DX009 (ip), vehicle: Klucel (hydroxypropylcellulose) (HPC) 96 % of control | dose: 0.5 mg/kg/injection, schedule: Q01DX009 (ip), vehicle: Klucel (hydroxypropylcellulose) (HPC) 96 % of control | dose: 1.0 mg/kg/injection, schedule: Q01DX009 (ip), vehicle: Klucel (hydroxypropylcellulose) (HPC) 100 % of control

CNC(=O)Nc1ccc(C)c(Cl)c1
inactive: [1] 105 % of control | [2] 91 % of control

CC(/C=N/N=C(N)N)=N\NC(N)=S
inactive: dose: 50.0 mg/kg/injection, schedule: Q01DX009 (ip), vehicle: distilled water + Tween-80 105 % of control | dose: 100.0 mg/kg/injection, schedule: Q01DX009 (ip), vehicle: distilled water + Tween-80 94 % of control

CCC1(O)CC2CN(CCc3c([nH]c4ccccc34)C(C(=O)OC)(c3cc4c(cc3OC)N(C)C3C(O)(C(=O)NCCSSCCNC(=O)C5(O)C(O)C6(CC)C=CCN7CCC8(c9cc(C%10(C(=O)OC)CC%11CN(CCc%12c%10[nH]c%10ccccc%12%10)CC(O)(CC)C%11)c(OC)cc9N(C)C58)C76)C(O)C5(CC)C=CCN6CCC43C65)C2)C1 (stereo unspecified)
inactive: dose: 0.13 mg/kg/injection, schedule: Q04DX003 (ip), vehicle: saline 122 % of control
active: dose: 0.64 mg/kg/injection, schedule: Q01DX009 (ip), vehicle: saline 184 % of control | dose: 1.0 mg/kg/injection, schedule: Q04DX003 (ip), vehicle: saline 151 % of control | dose: 1.08 mg/kg/injection, schedule: Q01DX009 (ip), vehicle: saline 189 % of control | dose: 648.0 micrograms/kg/injection, schedule: Q04DX003 (ip), vehicle: saline 158 % of control and 181 % of control | dose: 1080.0 micrograms/kg/injection, schedule: Q04DX003 (ip), vehicle: saline 183 % of control and 203 % of control | dose: 1800.0 micrograms/kg/injection, schedule: Q04DX003 (ip), vehicle: saline 184 % of control and 203 % of control

CCC(C)C1NC(=O)C2CCCN2C(=O)C(CC(C)C)OC(=O)CCNC(=O)C(C)N(C)C(=O)C(C(C)C)N(C)C1=O (stereo unspecified) (cyclo([ξLac(3-iPr)]PI[NMeV][NMeA][βAla]); configuration not given here)
inactive: dose: 1.25 mg/kg/injection, schedule: Q01DX009 (ip), vehicle: saline 112 % of control | dose: 2.5 mg/kg/injection, schedule: Q01DX009 (ip), vehicle: saline 111 % of control | dose: 5.0 mg/kg/injection, schedule: Q01DX009 (ip), vehicle: saline 105 % of control | dose: 10.0 mg/kg/injection, schedule: Q01DX009 (ip), vehicle: saline 107 % of control

ClCCOCOCCCl
inactive: dose: 20.0 mg/kg/injection, schedule: Q04DX003 (ip), vehicle: Klucel (hydroxypropylcellulose) (HPC) 101 % of control | dose: 40.0 mg/kg/injection, schedule: Q04DX003 (ip), vehicle: Klucel (hydroxypropylcellulose) (HPC) 89 % of control | dose: 80.0 mg/kg/injection, schedule: Q04DX003 (ip), vehicle: Klucel (hydroxypropylcellulose) (HPC) 102 % of control

O=C(NCCCN1CC1)C(=O)NCCCN1CC1
active: dose: 1.56 mg/kg/injection, schedule: Q01DX009 (ip), vehicle: saline 165 % of control | dose: 3.13 mg/kg/injection, schedule: Q01DX009 (ip), vehicle: saline 194 % of control
inactive: [4] 96 % of control

c1nnc(NCNc2nncs2)s1
inactive: [4] 108 % of control | [5] 122 % of control | dose: 50.0 mg/kg/injection, schedule: Q04DX003 (ip), vehicle: saline 109 % of control | dose: 100.0 mg/kg/injection, schedule: Q04DX003 (ip), vehicle: saline 119 % of control

Cc1c([N+](=O)[O-])cc2c(c1[N+](=O)[O-])C(C)(C)CC2(C)C
inactive: [6] 95 % of control | dose: 200.0 mg/kg/injection, schedule: Q01DX009 (ip), vehicle: saline with Tween-80 86 % of control | dose: 400.0 mg/kg/injection, schedule: Q01DX009 (ip), vehicle: saline with Tween-80 90 % of control

Nc1ccccc1N
inactive: dose: 12.5 mg/kg/injection, schedule: Q01DX009 (ip), vehicle: Klucel (hydroxypropylcellulose) (HPC) 96 % of control | dose: 25.0 mg/kg/injection, schedule: Q01DX009 (ip), vehicle: Klucel (hydroxypropylcellulose) (HPC) 98 % of control | dose: 25.0 mg/kg/injection, schedule: Q02DX009 (ip), vehicle: saline with Tween-80 106 % of control | dose: 50.0 mg/kg/injection, schedule: Q01DX009 (ip), vehicle: Klucel (hydroxypropylcellulose) (HPC) 98 % of control | [1] 102 % of control | dose: 100.0 mg/kg/injection, schedule: Q02DX009 (ip), vehicle: saline with Tween-80 100 % of control | dose: 200.0 mg/kg/injection, schedule: Q02DX009 (ip), vehicle: saline with Tween-80 100 % of control

CC(=O)CC(=O)Nc1cc(C)c(NC(=O)CC(C)=O)cc1C
inactive: [1] 93 % of control | [2] 93 % of control

Cn1c(N)c(N=Nc2ccccc2Cl)c(=O)n(C)c1=O
inactive: [4] 110 % of control | dose: 12.5 mg/kg/injection, schedule: Q01DX009 (ip), vehicle: saline 105 % of control | [5] 104 % of control | [7] 86 % of control | [8] 110 % of control

CC(=O)Nc1ccc2c(ccc3ccccc32)c1
inactive: [3] 90 % of control | [7] 102 % of control | [6] 89 % of control

COc1cc(C(=O)CC(O)(C(F)(F)F)C(F)(F)F)cc(OC)c1OC
inactive: [9] 100 % of control | [10] 110 % of control | [11] 97 % of control

COc1c(OC(C)=O)cc2c(OC(C)=O)c1CC(C)CC(OC)C(O)C(C)/C=C(\C)C(OC(N)=O)C(OC)/C=C\C=C(/C)C(=O)N2 (stereo unspecified)
inactive: dose: 12.5 mg/kg/injection, schedule: Q01DX005 (ip), vehicle: other 97 % of control | dose: 25.0 mg/kg/injection, schedule: Q01DX005 (ip), vehicle: other 98 % of control | dose: 50.0 mg/kg/injection, schedule: Q01DX005 (ip), vehicle: other 97 % of control | dose: 100.0 mg/kg/injection, schedule: Q01DX005 (ip), vehicle: other 101 % of control | dose: 200.0 mg/kg/injection, schedule: Q01DX005 (ip), vehicle: other 94 % of control

O=c1cc[nH]c(=O)[nH]1
inactive: dose: 32.0 mg/kg/injection, schedule: Q01DX009 (ip), vehicle: Klucel (hydroxypropylcellulose) (HPC) 99 % of control and 100 % of control | dose: 32.0 mg/kg/injection, schedule: Q01DX009 (ip), vehicle: saline with Tween-80 93 % of control | dose: 64.0 mg/kg/injection, schedule: Q01DX009 (ip), vehicle: Klucel (hydroxypropylcellulose) (HPC) 98 % of control and 106 % of control | dose: 64.0 mg/kg/injection, schedule: Q01DX009 (ip), vehicle: saline with Tween-80 93 % of control | dose: 128.0 mg/kg/injection, schedule: Q01DX009 (ip), vehicle: Klucel (hydroxypropylcellulose) (HPC) 101 % of control and 106 % of control | dose: 128.0 mg/kg/injection, schedule: Q01DX009 (ip), vehicle: saline with Tween-80 98 % of control | dose: 256.0 mg/kg/injection, schedule: Q01DX009 (ip), vehicle: Klucel (hydroxypropylcellulose) (HPC) 100 % of control and 102 % of control | dose: 256.0 mg/kg/injection, schedule: Q01DX009 (ip), vehicle: saline with Tween-80 90 % of control | dose: 512.0 mg/kg/injection, schedule: Q01DX009 (ip), vehicle: Klucel (hydroxypropylcellulose) (HPC) 102 % of control and 105 % of control | dose: 512.0 mg/kg/injection, schedule: Q01DX009 (ip), vehicle: saline with Tween-80 92 % of control

O=S(=O)(O)c1ccc(N=Nc2ccc(O)cc2)cc1
inactive: [9] 105 % of control | [10] 97 % of control | [11] 91 % of control

CN1CCC=C(C(=O)N2c3ccccc3CCc3ccccc32)C1
inactive: [5] 97 % of control | [8] 87 % of control | dose: 100.0 mg/kg/injection, schedule: Q01DX009 (ip), vehicle: saline 91 % of control
